Entries after “also recorded” stand apart in the source; their conditions may differ. Like-named read-outs stand apart in the source and are kept apart here.
What was measured:
vitamin D receptor (VDR) = target: T1, vitamin D receptor (VDR) (Homo sapiens, UniProt P11473); assay: Vitamin D-dependent transcriptional activation, growth hormone production in co-transfected COS-1 cells; format: cell-based
T1 sequence (P11473 1-427): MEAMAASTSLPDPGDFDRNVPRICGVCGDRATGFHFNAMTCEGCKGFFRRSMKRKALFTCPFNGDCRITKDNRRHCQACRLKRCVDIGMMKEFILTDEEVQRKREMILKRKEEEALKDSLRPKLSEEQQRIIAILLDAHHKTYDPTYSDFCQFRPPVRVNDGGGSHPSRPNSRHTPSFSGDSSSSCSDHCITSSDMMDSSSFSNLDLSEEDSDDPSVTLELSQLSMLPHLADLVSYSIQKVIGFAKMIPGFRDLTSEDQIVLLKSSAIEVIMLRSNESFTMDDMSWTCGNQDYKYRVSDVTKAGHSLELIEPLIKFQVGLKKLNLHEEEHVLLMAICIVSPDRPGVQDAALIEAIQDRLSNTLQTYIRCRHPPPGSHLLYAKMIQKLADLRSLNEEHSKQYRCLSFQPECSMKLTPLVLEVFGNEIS
Protocol: The biological activity in vitro of chemically synthesized 1α,24(S)-(OH)2 D2 and 1α,24(R)-(OH)2 D2 was measured using a vitamin D-dependent transcriptional activation model system in which a vitamin D receptor (VDR)-expressing plasmid pSG5-hVDR1/3and a plasmid p(CT4)^4 TKGH containing a Growth Hormone (GH)-gene, under the control of a vitamin D-responsive element (VDRE) were co-transfected into Green monkey kidney, COS-1 cells. DNA's for these two vectors were supplied by Dr. Mark Haussler, Department of Biochemistry, University of Arizona, Tucson, Ariz.
Tranfected cells were incubated with vitamin D metabolites and growth hormone production was measured.

bovine thymus VDR = target: T2, bovine thymus VDR (Bos taurus, UniProt Q28037); assay: Radioreceptor assay with bovine thymus VDR (Incstar), displacement of 3H-1α,25-(OH)2 D3; format: binding
T2 construct: commercially available kit of bovine thymus VDR; purchased Incstar (Stillwater, Minn.); host or cells: bovine thymus
T2 sequence (Q28037 1-426): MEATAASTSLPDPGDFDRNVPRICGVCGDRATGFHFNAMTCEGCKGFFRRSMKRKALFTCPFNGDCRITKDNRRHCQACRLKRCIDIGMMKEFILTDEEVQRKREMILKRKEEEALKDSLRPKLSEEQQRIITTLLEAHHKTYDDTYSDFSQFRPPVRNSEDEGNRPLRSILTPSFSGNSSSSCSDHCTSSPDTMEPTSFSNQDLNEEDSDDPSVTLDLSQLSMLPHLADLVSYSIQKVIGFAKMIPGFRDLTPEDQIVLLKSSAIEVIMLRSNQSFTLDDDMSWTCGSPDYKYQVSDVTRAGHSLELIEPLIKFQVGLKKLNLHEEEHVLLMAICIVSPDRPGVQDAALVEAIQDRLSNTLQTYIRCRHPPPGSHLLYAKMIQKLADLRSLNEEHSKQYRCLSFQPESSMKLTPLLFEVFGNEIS
From the text: Purified 1α,24(S)-(OH)2 D2 was quantitated by photodiode array spectrophotometry and assayed in the radioreceptor assay.
The purified 1α,24(R)-(OH)2 D2 and 1α,24(S)-(OH)2 D2 epimers were quantitated by ultraviolet spectroscopy. The concentration of 1α,24(R)-(OH)2 D2 required to produce the same displacement of ^3 H-1α,25-(OH)2 D3 tracer from the receptor was 20 to 30 times that required for 1α,24(S)-(OH)2 D2, as shown in FIG. 4.

[1] = target: T3, vitamin D serum binding protein (DBP) (Rattus norvegicus, UniProt P04276); assay: Affinity for vitamin D serum binding protein using vitamin D deficient rat serum
T3 sequence (P04276 17-476): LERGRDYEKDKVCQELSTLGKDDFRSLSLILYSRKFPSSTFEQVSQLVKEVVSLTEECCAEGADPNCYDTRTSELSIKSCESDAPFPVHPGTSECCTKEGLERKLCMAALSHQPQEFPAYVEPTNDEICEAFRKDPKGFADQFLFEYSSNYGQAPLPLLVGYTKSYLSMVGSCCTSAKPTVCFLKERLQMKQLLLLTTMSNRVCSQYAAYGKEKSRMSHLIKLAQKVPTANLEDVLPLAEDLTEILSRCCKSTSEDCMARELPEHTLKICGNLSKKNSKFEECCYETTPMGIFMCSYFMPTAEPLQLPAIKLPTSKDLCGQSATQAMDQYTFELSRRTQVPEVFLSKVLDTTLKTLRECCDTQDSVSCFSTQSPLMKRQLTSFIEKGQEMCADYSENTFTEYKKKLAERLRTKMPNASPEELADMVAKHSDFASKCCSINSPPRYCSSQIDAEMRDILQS
From the text: In addition, the weak binding by the DBP was indicative of more rapid clearance, allowing for low toxicity.

[2] = Preventive treatment of bone mass loss in postmenopausal osteoporotic women; format: in vivo, human; conditions: at or above 1.0 μg/day, 24 to 36 months
Protocol: A clinical study is conducted with postmenopausal osteoporotic out-patientshaving ages between 55 and 75 years. The study involves up to 120 patients randomly divided into three treatment groups and continues for 24 to 36 months. Two of the treatment groups receive constant dosages of 1α,24(S)-dihydroxy vitamin D2 (u.i.d.; two different dose levels at or above 1.0 μg/day) and the other group receives a matching placebo. All patients maintain a normal intake of dietary calcium (500 to 800 mg/day) and refrain from using calcium supplements. Efficacy is evaluated by pre- and post-treatment comparisons of the patient groups with regard to (a) total body calcium retention, and (b) radial and spinal bone mineral density as determined by dual-photon absorptiometry (DPA) or dual-energy x-ray absorptiometry (DEXA). Safety is evaluated by comparisons of urinary hydroxyproline excretion, serum and urine calcium levels, creatinine. clearance, blood urea nitrogen, and other routine determinations.

[3] = Hypocalcemia and metabolic bone disease in chronic hemodialysis patients; format: in vivo, human; conditions: greater than 3.0 μg/day, twelve months
Protocol: A twelve-month, double-blind, placebo-controlled clinical trial is conducted with thirty men and women with renal disease who are undergoing chronic hemodialysis. […] Efficacy is evaluated by pre- and post-treatment comparisons of the two patient groups with regard to (a) direct measurements of intestinal calcium absorption, (b) total body calcium retention, (c) radial and spinal bone mineral density, or (d) determinations of serum calcium. Safety is evaluated by regular monitoring of serum calcium.

HL-60 promyelocytes = assay: HL-60 cell differentiation assay; format: cell-based; conditions: dose-response study
Protocol: A dose-response study is conducted with 1α,24(S)-(OH)2 D2 in the HL-60 cell differentiation assay as described by DeLuca and Ostrom (DeLuca, H. F. and Ostrem, V. K., Prog. Clin. Biol. Res., vol. 259, pp. 41-55 (1988)). In this study, 1α,25-(OH)2 D3 is used as a positive control and appropriate solvents are used as negative controls. The following variables are evaluated: nonspecific acid esterase activity, nitroblue tetrazolium (NBT) reduction, and thymidine incorporation.

C=C1/C(=C\C=C2/CCC[C@]3(C)[C@@H]([C@H](C)/C=C/[C@@](C)(O)C(C)C)CC[C@@H]23)C[C@@H](O)C[C@@H]1O [1α,24(S)-(OH)2 D2, 1α,24(S)-dihydroxy Vitamin D2]
Activity in the transcriptional activation system compared with 1α,24(R)-(OH)2 D2 (vitamin D receptor (VDR)): significantly more activity | Affinity for VDR relative to 1α,25-(OH)2 D3 (bovine thymus VDR): two-fold less competitive; also recorded: two-fold lower affinity | Binding affinity for the vitamin D serum binding protein (in words) [1]: relatively poor binding affinity | Binding affinity for the vitamin D serum binding protein (in words) ([1]; listed as 1α,24(S)-dihydroxy vitamin D2): more weakly than does 1,25-(OH)2 D3 | Incidence of hypercalcemia or hypercalciuria [2]: insignificant incidence | Total body calcium, radial and spinal bone densities versus placebo [2]: significantly higher | Incidence of hypercalcemia [3]: insignificant incidence of hypercalcemia | Radial and spinal bone densities [3]: stable radial and spinal bone densities relative to baseline values | Serum calcium levels [3]: normalized serum calcium levels | Total body calcium [3]: stable values for total body calcium | Promotion of differentiation of HL-60 promyelocytes to monocytes (HL-60 promyelocytes): potent activity
